Common to all, as to format: physicochemical
Data set [1] in a line: Protonation constants of the ligand by spectrophotometric titration. The following applies: free ligand; for PKa: IAM.
Data set [2] in a line: Stability constants of the Eu complex by spectrophotometric titration. The procedure: FIG. 3 Spectrophotometric titration of a 1:1 ratio Eu:H22MeTIAM (9A): I=0.1, 25° C., optical path=1 cm.
(§1) The stability constants of the lanthanide complexes formed with the ligand H22TAMDIAM(9A) were estimated through spectrophotometric titrations.
(§2) The stability constants of the Eu and Tb complexes formed with the ligand H22TAMDIAM (9A) have been calculated form these experiments and the results are reported in the table.

A short description of data set [3]: Stability constants of the Tb complex by spectrophotometric titration.
Description: as §1, §2

With H4H(2,2)TIAM [Compound 9A], the “Proton Affinity Log […]011” value in data set [1] (cumulative protonation constant, 1 proton (phenolic)) is 8.58(2). In addition, the “Proton Affinity Log […]012” value in data set [1] (cumulative protonation constant, 2 protons) is 15.17(3). Besides, the “Proton Affinity Log […]013” value in data set [1] (cumulative protonation constant, 3 protons) is given as 20.38(4). The “Proton Affinity Log […]014” value in data set [1] (cumulative protonation constant, 4 protons) is 24.46(6). Moreover, the PKa in data set [1] (first phenolic proton (line Log […]011)) is reported as 8.58; in data set [1] (fourth phenolic proton (line Log […]014)) it was 4.08; in data set [1] (second phenolic proton (line Log […]012)) it was 6.59; in data set [1] (third phenolic proton (line Log […]013)), 5.21. The “Log[…]11-1” value in data set [2] (1:1 Eu:ligand, I=0.1, 25° C.) is listed as 11.04(2); in data set [3] it was 12.60(7). Moreover, the “Log[…]11-2” value in data set [2] (1:1 Eu:ligand, I=0.1, 25° C.) is given as 1.98(10); in data set [3], 3.62(9). Besides, the “Log[…]110” value in data set [2] (1:1 Eu:ligand, I=0.1, 25° C.) is given as 17.29(1); in data set [3], 17.85(3). For the same substance, the pKa in data set [2] (line Log[…]11-1) was found to be 6.25; in data set [2] (line Log[…]11-2) it was 9.06; in data set [3] (line Log[…]11-1), 5.25; in data set [3] (line Log[…]11-2), 8.98. The pM result in data set [2] (n = 3) is reported as “Eu, pM = 18.2, n = 3”; in data set [3] (n = 3), “Tb, pM = 19.7,n = 3”.

One may read the pKa as the pH at which an ionisable group is half protonated.

The values above are taken from patent US8551453B2, “Aromatic triamide-lanthanide complexes” (The Regents of the University of California, priority 2003, dated 2013).
